# Laboratory results taken from ChEMBL document CHEMBL1201862, “PubChem BioAssay data set” (2004).
#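 A five-concentration, 48-hour dose response in 96-well plates underlies each endpoint, interpolated linearly between surrounding concentrations. Here, GI50 denotes the concentration required for 50% inhibition of growth.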 Activity calls are given as the source filed them. Cut-off read from the data, not from the text of the source: active = GI50 up to about 1.1 µM and inactive = higher.
# Columns and labels:
# Test in all cases: growth of human tumour cells (NCI), 48 h
# SN12C = test system: SN12C
# A498 = test system: A498
# Hs-578T = test system: Hs-578T
# HCC 2998 = test system: HCC 2998
# RPMI-8226 = test system: RPMI-8226
# MDA-N = test system: MDA-N
# UO-31 = test system: UO-31
# SNB-75 = test system: SNB-75
# OVCAR-5 = test system: OVCAR-5
# SW-620 = test system: SW-620
# Malme-3M = test system: Malme-3M
# SF-539 = test system: SF-539
# SK-MEL-2 = test system: SK-MEL-2
# MOLT-4 = test system: MOLT-4
# T47D = test system: T47D
# NCI/ADR-RES = test system: NCI/ADR-RES
# TK-10 = test system: TK-10
# SK-OV-3 = test system: SK-OV-3
Compound,GI50 (SN12C),GI50 (A498),GI50 (Hs-578T),GI50 (HCC 2998),GI50 (RPMI-8226),GI50 (MDA-N),GI50 (UO-31),GI50 (SNB-75),GI50 (OVCAR-5),GI50 (SW-620),GI50 (Malme-3M),GI50 (SF-539),GI50 (SK-MEL-2),GI50 (MOLT-4),GI50 (T47D),GI50 (NCI/ADR-RES),GI50 (TK-10),GI50 (SK-OV-3)
CN1CCN(c2n[nH]c(=O)c3c2nnn3C2CCCCC2)CC1,> 100 µM (inactive),> 100 µM (inactive),> 100 µM (inactive),> 100 µM (inactive),> 100 µM (inactive),> 100 µM (inactive),> 100 µM (inactive),> 100 µM (inactive),> 100 µM (inactive),> 100 µM (inactive),> 100 µM (inactive),> 100 µM (inactive),> 100 µM (inactive),> 100 µM (inactive),> 100 µM (inactive),> 100 µM (inactive),> 100 µM (inactive),
N#Cc1ccccc1NC(=O)/C(=N\NC(=O)c1ccncc1)C(c1cnc2ccc([N+](=O)[O-])cc2n1)[N+](=O)[O-] (stereo unspecified),> 100 µM (inactive),> 100 µM (inactive),> 100 µM (inactive),> 100 µM (inactive),49 µM (inactive),> 100 µM (inactive),32.1 µM (inactive),> 100 µM (inactive),> 100 µM (inactive),> 100 µM (inactive),> 100 µM (inactive),> 100 µM (inactive),> 100 µM (inactive),80 µM (inactive),> 100 µM (inactive),> 100 µM (inactive),> 100 µM (inactive),> 100 µM (inactive)
CC[C@]1(Cc2ccc(OC)c(OC)c2)CN(S(=O)(=O)c2ccc(C)cc2)C[C@@H]1OC(C)=O,,> 100 µM (inactive),> 100 µM (inactive),> 100 µM (inactive),> 100 µM (inactive),> 100 µM (inactive),> 100 µM (inactive),41.9 µM (inactive),> 100 µM (inactive),> 100 µM (inactive),> 100 µM (inactive),69.5 µM (inactive),> 100 µM (inactive),> 100 µM (inactive),58.5 µM (inactive),> 100 µM (inactive),> 100 µM (inactive),64.6 µM (inactive)
O=C(N/N=C\c1cccc2ccccc12)Nc1ccc([N+](=O)[O-])cc1,18.5 µM (inactive),2.66 µM (inactive),25.4 µM (inactive),15.8 µM (inactive),> 19.7 µM (inactive),19.1 µM (inactive),12.8 µM (inactive),38.9 µM (inactive),19.7 µM (inactive),29.6 µM (inactive),14.2 µM (inactive),8.05 µM (inactive),20 µM (inactive),20.8 µM (inactive),4.28 µM (inactive),13.9 µM (inactive),4.94 µM (inactive),24.6 µM (inactive)
O=C1C=CC(=O)c2c1ccc1c3ccccc3n(Cc3ccccc3)c21,21.6 µM (inactive),19.8 µM (inactive),42.2 µM (inactive),> 37 µM (inactive),0.231 µM (active),23 µM (inactive),20.2 µM (inactive),> 82.8 µM (inactive),20.9 µM (inactive),7.21 µM (inactive),16.6 µM (inactive),38.4 µM (inactive),31.5 µM (inactive),7.55 µM (inactive),25.1 µM (inactive),42.2 µM (inactive),18.6 µM (inactive),> 100 µM (inactive)
O=C(/C=C1\Nc2ccc([N+](=O)[O-])cc2N\C1=C/C(=O)c1ccc(F)cc1)c1ccc(F)cc1,90.2 µM (inactive),19.6 µM (inactive),14.9 µM (inactive),80 µM (inactive),20.9 µM (inactive),> 100 µM (inactive),> 100 µM (inactive),15.7 µM (inactive),> 100 µM (inactive),> 100 µM (inactive),> 100 µM (inactive),19.6 µM (inactive),17.2 µM (inactive),17.6 µM (inactive),82.8 µM (inactive),82 µM (inactive),15.3 µM (inactive),17.9 µM (inactive)
NC1CC(=O)c2csc(Cl)c21 (stereo unspecified),5.42 µM (inactive),17.1 µM (inactive),35.5 µM (inactive),17.6 µM (inactive),0.234 µM (active),8.63 µM (inactive),5.75 µM (inactive),17.3 µM (inactive),19.6 µM (inactive),2.05 µM (inactive),2.68 µM (inactive),2.23 µM (inactive),12.9 µM (inactive),1.48 µM (inactive),3.98 µM (inactive),27 µM (inactive),11.5 µM (inactive),17.3 µM (inactive)
FC(F)(F)c1ccc2c(c1)nc(-c1ccccc1)n2CC1CCCN2CCCCC12 (stereo unspecified),18.6 µM (inactive),22.2 µM (inactive),16.8 µM (inactive),16 µM (inactive),32 µM (inactive),17.6 µM (inactive),0.27 µM (active),19.3 µM (inactive),,28.1 µM (inactive),13.7 µM (inactive),16.4 µM (inactive),15.3 µM (inactive),25.9 µM (inactive),20 µM (inactive),16.3 µM (inactive),19.6 µM (inactive),16.9 µM (inactive)
